# Entries after “also recorded” stand apart in the source; their conditions may differ.
# System: IRF5
# Assay: IRF5 immunoprecipitation, phosphoserine and ubiquitin on IRF5 in heart lysates
# Type: in vivo, mouse
# From the text: All experimental procedures and protocols involving mice were reviewed and approved by the Institutional Animal Care and Use Committee (IACUC) of the Medical College of Wisconsin (AUA#512). They also conformed to the rules in the Guiding Principles in the Care and Use of Animals published by the American Physiologic Society and the Guide for the Care and Use of Laboratory Animals published by OLAW. Male Tsk^−/+ and C57Bl/6J mice (6–8 weeks of age) were purchased from Jackson Laboratories (Bar Harbor, ME). Three groups of mice were studied; C57Bl/6J, Tsk^−/+, and Tsk^−/+ mice treated with 4F (1 mg/kg/d, sc) as published previously.
# To determine the effects of strain and 4F treatments on the activation state of IRF5 we immunoprecipitated IRF5 from heart homogenates and examined changes in phosphoserine and ubiquitination on IRF5 using previously published protocols, [15]. Briefly, heart homogenates were precleared with agarose beads for 1 hour followed by addition of anti-IRF5 antibody (Santa Cruz Biotechnologies) to the homogenates (500 µg in 0.5 ml) at 5 µg/100 µl (final concentration). Samples were incubated for 16 h at 4°C with end-over-end mixing. A 50 µl aliquot of a 50% slurry of Protein A agarose beads (Santa Cruz Biotechnologies) was added and incubated for 2 h with end-over-end mixing to pull-down immunocaptured IRF5. The beads were isolated by centrifugation and washed 3 times (3 minutes each time) in PBS. IRF5 was released from the beads with Laemmli sample buffer (Bio-Rad, Hercules, CA) containing mercaptoethanol and heating to 95°C for 5 min. IRF5 was separated from co-precipitated proteins by SDS-PAGE (4–15% Tris·HCl Criterion gels, Bio-Rad) and the proteins transferred onto nitrocellulose membranes. Membranes were blocked in 10% non-fat dry milk and then incubated in 2% non-fat dry milk containing polyclonal rabbit anti-phosphoserine (Antibodies-Online, Atlanta, GA, 1∶200 dilution), monoclonal mouse anti-ubiquitin (Santa Cruz Biotechnologies, 1∶200 dilution) or monoclonal mouse anti-K^63 ubiquitin (Enzo, Farmingdale, NY, 1∶500 dilution) overnight at 4°C. The next day, the membranes were gently washed and incubated with the HRP-conjugated donkey anti-rabbit antibody (1∶5,000, Santa Cruz Biotechnologies). Autoradiograms were developed; images of bands captured and densities analyzed as described above.
substance,measurement,setting,value
Ac-DWFKAFYDKVAEKFKEAF-NH2 [4F],phosphoserine levels on IRF5 (in words),"4F 1 mg/kg/d, sc, Tsk−/+ hearts, IRF5 immunoprecipitates",decrease phosphoserine; also recorded: reduced phosphoserine levels on IRF5 in Tsk^−/+ hearts
same,decrease of phosphoserine levels on IRF5,"4F-treated Tsk−/+ hearts vs C57BL/6J and untreated Tsk−/+ hearts, IRF5 immunoprecipitates, Western blot",about 15%
same,total ubiquitin on IRF5,"4F-treated Tsk−/+ hearts vs C57BL/6J hearts, * = p<0.05, n = 4, IRF5 immunoprecipitates",increase total ubiquitin on IRF5; also recorded: increased in 4F-treated Tsk^−/+ hearts compared with the levels on IRF5 in C57BL/6J hearts; also recorded: significantly increased total ubiquitin levels on IRF5 in the Tsk^−/+ hearts
same,IRF5 activation (in words),"4F-treated Tsk−/+ hearts, inferred from phosphoserine and ubiquitin on IRF5",decrease IRF5 expression and activation in Tsk^−/+ hearts; also recorded: inactivated in 4F-treated Tsk^−/+ hearts
